This note sets out measurements from US10759751B2, “Substituted spirocyclohexanes as muscarinic M1 receptor and/or M4 receptor agonists” (Heptares Therapeutics Limited, priority 2016, dated 2020).

Test [1] addresses T1, human muscarinic M4 receptor (Homo sapiens, UniProt P08173).
T1 construct: expressed in transfected cells
T1 sequence (P08173 1-479): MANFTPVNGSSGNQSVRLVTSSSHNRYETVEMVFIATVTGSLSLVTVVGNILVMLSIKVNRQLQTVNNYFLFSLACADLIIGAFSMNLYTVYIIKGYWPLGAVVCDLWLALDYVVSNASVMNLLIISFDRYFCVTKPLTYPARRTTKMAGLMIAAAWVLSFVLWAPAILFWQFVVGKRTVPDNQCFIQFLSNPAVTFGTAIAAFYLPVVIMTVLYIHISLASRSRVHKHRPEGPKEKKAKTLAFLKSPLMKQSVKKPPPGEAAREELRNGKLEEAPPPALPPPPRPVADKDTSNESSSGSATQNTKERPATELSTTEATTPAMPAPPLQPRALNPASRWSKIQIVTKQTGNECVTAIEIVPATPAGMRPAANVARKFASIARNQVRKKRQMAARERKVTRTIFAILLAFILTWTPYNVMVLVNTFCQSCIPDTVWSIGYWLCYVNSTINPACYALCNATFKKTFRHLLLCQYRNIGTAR
The test is described as follows: Alphascreen Surefire phospho-ERK1/2 functional assay, M4. The class given is cell-based. The note with it: for M4 % Emax cf. ACh / Emax: Emax relative to ACh; for EC50: read-out: pEC50 M4 (converted); for Emax: CHO, read-out: M4 % Emax cf. ACh, CHO cells stably expressing human M4. Here is the method:
(§1) Functional assays were performed using the Alphascreen Surefire phospho-ERK1/2 assay (Crouch & Osmond, Comb. Chem. High Throughput Screen, 2008). ERK1/2 phosphorylation is a downstream consequence of both Gq/11 and Gi/o protein coupled receptor activation, making it highly suitable for the assessment of M1, M3 (Gq/11 coupled) and M2, M4 receptors (Gi/o coupled), rather than using different assay formats for different receptor subtypes. CHO cells stably expressing the human muscarinic M1, M2, M3 or M4 receptor were plated (25K/well) onto 96-well tissue culture plates in MEM-alpha+10% dialysed FBS. Once adhered, cells were serum-starved overnight. Agonist stimulation was performed by the addition of 5 μL agonist to the cells for 5 min (37° C.). Media was removed and 50 μL of lysis buffer added. After 15 min, a 4 μL sample was transferred to 384-well plate and 7 μL of detection mixture added. Plates were incubated for 2 h with gentle agitation in the dark and then read on a PHERAstar plate reader.
(§2) pEC50 and Emax figures were calculated from the resulting data for each receptor subtype.

For test [2], the target named is T2, human muscarinic M1 receptor (Homo sapiens, UniProt P11229).
T2 sequence (P11229 1-460): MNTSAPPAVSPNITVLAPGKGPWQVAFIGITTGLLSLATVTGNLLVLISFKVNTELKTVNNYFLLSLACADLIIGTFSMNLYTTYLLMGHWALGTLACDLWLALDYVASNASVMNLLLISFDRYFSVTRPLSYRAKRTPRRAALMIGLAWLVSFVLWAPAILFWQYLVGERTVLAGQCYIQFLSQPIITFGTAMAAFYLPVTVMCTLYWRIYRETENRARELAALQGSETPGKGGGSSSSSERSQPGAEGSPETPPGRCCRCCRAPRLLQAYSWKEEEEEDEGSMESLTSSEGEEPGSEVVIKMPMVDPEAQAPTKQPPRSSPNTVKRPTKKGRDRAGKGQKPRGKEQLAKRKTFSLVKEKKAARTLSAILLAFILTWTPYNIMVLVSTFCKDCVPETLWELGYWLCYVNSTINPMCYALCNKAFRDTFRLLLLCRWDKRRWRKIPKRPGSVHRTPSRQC
In words: Alphascreen Surefire phospho-ERK1/2 functional assay, M1. The format is cell-based. The note with it: for M1 % Emax cf. ACh / EC50: CHO cells stably expressing human M1; for M1 % Emax cf. ACh / Emax: Emax relative to ACh; for EC50: phospho-ERK1/2, read-out: pEC50 M1 (converted); for Emax: CHO, read-out: M1 % Emax cf. ACh, CHO cells stably expressing human M1. The method, then:
as §1, §2
(Bead proximity is the source of the signal in Alpha formats.)

Setting [3] is: CHO cells stably expressing human M4.
Setting [4] is: CHO cells stably expressing human M4, phospho-ERK1/2.

In the case of `CCOC(=O)N[C@H]1CCN(C2CCC3(CC2)C(=O)Nc2cc(F)ccc23)C1` (single isomer, unassigned) [2-7 isomer 1], the “M4 % Emax cf. ACh” value in test [1] (setting [3]) is reported as 1%. The “pEC50 M4” value in test [1] (setting [4]) was under 4.7. Also, in test [2], the “M1 % Emax cf. ACh” value was found to be 35% and the EC50 was 1780 nM.
In general, Emax refers to the greatest response seen or fitted, relative to the assay's reference. Take `CCOC(=O)N[C@H]1CCN(C2CCC3(CC2)C(=O)Nc2ccc(F)cc23)C1` (single isomer, unassigned) [2-8 isomer 1]: the EC50 is over 20000 nM in test [1] (setting [4]) and 93.3 nM in test [2]. In addition, the Emax in test [1] was 10%; in test [2], 59%.
With `CCOC(=O)N[C@H]1CCN(C2CCC3(CC2)C(=O)Nc2cc(OC)ccc23)C1` (single isomer, unassigned) [2-9 isomer 1], the EC50 was over 20000 nM in test [1] (setting [4]) and 282 nM in test [2]. Moreover, the Emax in test [1] amounted to 51%; in test [2] it was 77%.
In the case of `CCOC(=O)N[C@H]1CCN(C2CCC3(CC2)C(=O)N(C(=O)OCC)c2ccccc23)C1` (single isomer, unassigned) [2-14 isomer 2], the EC50 in test [1] (setting [4]) is over 20000 nM; in test [2], 117 nM. In addition, the results for the maximal response (Emax) in test [1] and in test [2] were 56% and 77%, respectively.
Regarding `CCOC(=O)N[C@H]1CCN(C2CCC3(CC2)C(=O)Nc2cnc(OC)cc23)C1` (single isomer, unassigned) [2-19 isomer 1], the EC50 is over 20000 nM in test [1] (setting [4]) and 2090 nM in test [2]. Moreover, the Emax amounted to 19% in test [1] and 63% in test [2].
As to `CCOC(=O)N[C@H]1CCN(C2CCC3(CC2)C(=O)Nc2ccc(OC)nc23)C1` (single isomer, unassigned) [2-20 isomer 1], the EC50 in test [1] (setting [4]) was over 20000 nM; in test [2] it was 372 nM. In addition, the Emax came out at 16% in test [1] and 32% in test [2].
In the case of `CCOC(=O)N(C)[C@@H]1CCN(C2CCC3(CC2)C(=O)Nc2cccnc23)C1` (single isomer, unassigned) [2-21 isomer 2], the EC50 was 245 nM in test [1] (setting [4]) and 468 nM in test [2]. The figures for the Emax in test [1] and in test [2] were 86% and 58%, respectively.
As for `C/C=C/C(=O)N1CCCN(C2CCC3(CC2)C(=O)Nc2ccccc23)CC1` (single isomer, unassigned) [4-4 isomer 2], the EC50 was over 20000 nM in test [1] (setting [4]) and 257 nM in test [2]. In addition, the Emax in test [1] amounted to 12%; in test [2], 48%.
Consider `CCOC(=O)N1CCCN(C2CCC3(CC2)C(=O)Nc2cc(C)ccc23)CC1` (single isomer, unassigned) [4-6 isomer 1], for which the “M4 % Emax cf. ACh” value in test [1] (setting [3]) turned out to be 26%. Also, the EC50 was 3240 nM in test [1] (setting [4]) and 575 nM in test [2]. Further, the “M1 % Emax cf. ACh” value in test [2] is 85%.
Taken in the same sequence, the figures for `CCOC(=O)N1CCCN(C2CCC3(CC2)C(=O)Nc2cccc(C)c23)CC1` (single isomer, unassigned) [4-8 isomer 1] were 52%, 380 nM, 1100 nM and 67%.
As to `CCOC(=O)N1CCCN(C2CCC3(CC2)C(=O)Nc2cc(C#N)ccc23)CC1` (single isomer, unassigned) [4-13 isomer 2], the EC50 is 347 nM in test [1] (setting [4]) and 955 nM in test [2]. Moreover, the Emax in test [1] turned out to be 39%; in test [2], 38%.
On to `CCOC(=O)N1CCCN(C2CCC3(CC2)C(=O)Nc2ccc(C#N)cc23)CC1` (single isomer, unassigned) [4-14 isomer 1], for which the values for the EC50 in test [1] (setting [4]) and in test [2] were over 20000 nM and 977 nM, respectively. Besides, the Emax in test [1] is 24%; in test [2] it was 76%.
Regarding `CCOC(=O)N1CCCN(C2CCC3(CC2)C(=O)Nc2ncc(Cl)cc23)CC1` (single isomer, unassigned) [4-16 isomer 1], the EC50 was over 20000 nM in test [1] (setting [4]) and 891 nM in test [2]. Further, the Emax in test [1] was determined as 5%; in test [2], 60%.
Taken in the same sequence, the figures for `CCOC(=O)N1CCCN(C2CCC3(CC2)C(=O)Nc2ncc(OC)cc23)CC1` (single isomer, unassigned) [4-17 isomer 2] were over 20000 nM, 437 nM, 19% and 89%.
Taken in the same sequence, the figures for `CCOC(=O)N1CCCN(C2CCC3(CC2)CN(S(C)(=O)=O)c2ncccc23)CC1` (single isomer, unassigned) [4-19 isomer 1] were 324 nM, 6760 nM, 97% and 104%.
With `CCOC(=O)N1CCCN(C2CCC3(CC2)C(=O)Nc2ccc(OC)nc23)CC1` (single isomer, unassigned) [4-24 isomer 1], the results for the EC50 in test [1] (setting [4]) and in test [2] were 316 nM and 813 nM, respectively. The Emax in test [1] amounted to 61%; in test [2] it was 75%.
With `CCOC(=O)NC1CCN(C2CCC3(CC2)C(=O)Nc2ccccc23)CC1` (single isomer, unassigned) [7-1 isomer 1], the EC50 in test [1] (setting [4]) is 158 nM. In addition, in test [1], the Emax amounted to 26%. In addition, in test [2], the “M1 % Emax cf. ACh” value is on record as 112% and the EC50 is 257 nM.
For the compound `CCOC(=O)NC1CCN(C2CCC3(CC2)C(=O)Nc2ccccc23)CC1` (single isomer, unassigned) [7-1 isomer 2], the “M4 % Emax cf. ACh” value in test [1] (setting [3]) turned out to be 20%. For the same compound, the EC50 was 282 nM in test [1] (setting [4]) and 490 nM in test [2]. For the same compound, in test [2], the “M1 % Emax cf. ACh” value came out at 68%.
Taken in the same sequence, the figures for `CCOC(=O)NCC1CCN(C2CCC3(CC2)C(=O)Nc2ccccc23)CC1` (single isomer, unassigned) [7-2 isomer 2] were 10%, over 20000 nM, 389 nM and 66%.
For the compound `Cc1noc(C2CC3(CCN(C4CCC(C#N)(c5ccc(F)cn5)CC4)C3)C2)n1` (single isomer, unassigned) [21-3 Isomer 3], the “M4 % Emax cf. ACh” value in test [1] (setting [3]) amounted to 15%. Also, the EC50 in test [1] (setting [4]) was over 20000 nM. In test [2], the “M1 % Emax cf. ACh” value worked out at 51% and the EC50 is 562 nM.
On to `Cc1noc(C2CC3(CCN(C4CCC(C#N)(c5ccc(F)cn5)CC4)C3)C2)n1` (single isomer, unassigned) [21-3 Isomer 4], for which the “M4 % Emax cf. ACh” value in test [1] (setting [3]) came to 75%. Moreover, the EC50 in test [1] (setting [4]) is 69.2 nM; in test [2], 162 nM. Besides, the “M1 % Emax cf. ACh” value in test [2] is reported as 80%.
Take `COc1ccc(C2(C#N)CCC(N3CCC4(CC(c5nc(C)no5)C4)C3)CC2)nc1` (single isomer, unassigned) [21-4 Isomer 4]: the EC50 is 309 nM in test [1] (setting [4]) and 2140 nM in test [2]. In addition, the Emax came out at 68% in test [1] and 47% in test [2].
Regarding `Cc1ccc(C2(C#N)CCC(N3CCC4(CC(c5nc(C)no5)C4)C3)CC2)nc1` (single isomer, unassigned) [21-5 Isomer 1], the EC50 in test [1] (setting [4]) was 1070 nM. In addition, in test [1], the maximum response (Emax) came out at 55%. Moreover, in test [2], the “M1 % Emax cf. ACh” value worked out at 18% and the EC50 was over 20000 nM.
With `Cc1ccc(C2(C#N)CCC(N3CCC4(CC(c5nc(C)no5)C4)C3)CC2)nc1` (single isomer, unassigned) [21-5 Isomer 2], the “M4 % Emax cf. ACh” value in test [1] (setting [3]) stood at 51%. For the same compound, the EC50 in test [1] (setting [4]) is 1260 nM; in test [2] it was 14500 nM. Moreover, in test [2], the “M1 % Emax cf. ACh” value was determined as 82%.
Regarding `COc1ccc2c(c1)C1(CCC(N3CCC4(CC(c5nc(C)no5)C4)C3)CC1)C(=O)N2` (single isomer, unassigned) [26-2 Isomer 3], the “M4 % Emax cf. ACh” value in test [1] (setting [3]) came out at 14%. Besides, in test [1] (setting [4]), the EC50 was over 20000 nM. For the same compound, in test [2], the “M1 % Emax cf. ACh” value is listed as 51% and the EC50 is 224 nM.
